Data reported in patent publication US20130046098A1, “KINASE INHIBITORS” (THE UNIVERSITY OF MANCHESTER, priority 2009, published 2013).
“Also recorded” adds a separate entry of the source.

Tests used:
[1] = tested on: GEF16 transformed NIH3T3 cells; assay: Flow cytometry of DNA content (cell cycle, sub G1); type: cell-based, mouse
Method: NIH3T3 cells with or without drug treatments (with Y27632 or the compounds of the invention) were harvested at various time points and cell counts carried out to confirm that 1×10^6 cells were present for each cytometric analysis. Cells were washed with PBS, fixed with 70% ice-cold ethanol, pelleted and DNA stained by incubating the cells with propidium iodide ([…]) (Sigma-Aldrich, Poole, UK) at 4° C. for 45 min. Cells were then washed twice with ice-cold PBS and resuspended in 400 μl of PBS. The DNA content during different phases of the cell cycle was then determined by flow cytometry (BD Biosciences, Oxford, UK). Each profile shown was representative of three separate experiments.

[2] = tested on: single transformed colony derived GEF16 cells co-cultured with non-transformed vector cells; assay: Co-culture of single colony derived GEF16 cells with non-transformed vector cells; type: cell-based, mouse; details: 10 μM, 10 days
Method: (§1) FIG. 5 illustrates that the growth suppressive effects of YA1 on single transformed colony derived GEF16 NIH3T3 cells and polyclonal Ras transformed NIH3T3 cells are more pronounced when these are co-cultured with non-transformed cells. In FIG. 5A single transformed colonies were picked from 10 day cultures of GEF16 polyclonal NIH3T3 cells and expanded. These cells were then seeded at 2.0×10^5 cells per 30 mm dish and treated with 10 μM of YA1 or DMSO control either immediately or following 10 days in culture. Duplicate wells were harvested for flow cytometry. In FIG. 5B a total of 2×10^5 cells per well were plated consisting of increasing numbers of non-transformed vector cells co-cultured with decreasing numbers of single transformed colony derived GEF16 cells. These were treated with 10 μM of either YA1 or DMSO for 10 days. In producing the results shown in FIG. 5C the same co-culture experiment described in connection with FIG. 5B was carried out substituting polyclonal Ras transformed NIH3T3 cells for GEF16 transformed cells.
Non-transformed vector cells mixed with decreasing numbers of cells expanded from single GEF16 transformed colonies were treated with the compound of the invention YA1, or with DMSO, and incubated for 10 days.

[3] = tested on: single transformed colony derived GEF16 NIH3T3 cells; assay: Growth of cell populations derived from single GEF16 transformed colonies; type: cell-based, mouse
Method: as §1
Single transformed colonies were picked from GEF16 polyclonal NIH3T3 cells and expanded according to the methods described above. Expanded cell populations were plated and a compound of the invention (YA1) added either immediately or after 10 days when the cells were post-confluent.

HGK (MAP4K4) = HGK (MAP4K4) (Homo sapiens, UniProt O95819); assay: SelectScreen in vitro kinase profiling, single point
ROCK = assay: SelectScreen 40 kinase panel; type: biochemical, human; details: 10 μM, Km ATP
Excerpt: The SelectScreen™ kinase inhibitor assay service was used (Invitrogen Ltd., Paisley, UK) to investigate the ability of the compounds of the invention to inhibit a large number of different kinases. This commercially provided service allows assessment of the ability of a compound (or compounds) of interest to inhibit a broad panel of human kinases. Further details regarding this service are available on the Invitrogen website at:
In the present study YA1 (a compound in accordance with formula (V)) was investigated for its ability to inhibit the activity of the 40 kinases shown in panel B of FIG. 2. The compounds of the invention were diluted in DMSO at a concentration of 10 mM and single-point kinase inhibitory activities were measured at 10 μM and Km ATP concentration.

[4] = tested on: GEF16 transfected NIH3T3 cells; assay: Cell proliferation assay (Celltiter Aq96); type: cell-based, mouse; details: 10 μM, FIG. 3B, P>0.05
Method: FIG. 1D is a bar chart showing the results of Cell AQ^96 assessment of the growth of GEF16 and vector transfected cells seeded in a 96 well plate at 1×10^3 cells per well. These were incubated for 3 days followed by addition of reagent to determine the starting point for the assay. 10 μM of either Y27632 or DMSO were then added to wells containing both cell types and Cell AQ^96 absorbance measured at 6, 8 and 10 days. At day 3 cells were 100% confluent which was determined by phase contrast visual inspection of the cultures at ×20 magnification;
Cell proliferation was investigated using Celltiter Aq^96 reagent (Promega, Southampton, UK) according to the manufacturer's protocol. Cells were seeded into a 96-well plate at a density of 1×10^3 cells/well allowing 3 wells per data point and allowed to attach for a set period. Following this, the initial starting point 490 nm absorbance was determined by adding 20 μl of Aq^96 reagent to each well and incubating for 4 h at 37° C. in 5% CO2 (96-well plate reader, Dynex Technologies, West Sussex, UK). The various compounds (Y27632 or compounds of the invention) or DMSO control were then added to duplicate wells and the absorbance determined in the same way at the time points indicated. Each data set shown is representative of three separate experiments.

Sequence of HGK (MAP4K4) (O95819 whole entry): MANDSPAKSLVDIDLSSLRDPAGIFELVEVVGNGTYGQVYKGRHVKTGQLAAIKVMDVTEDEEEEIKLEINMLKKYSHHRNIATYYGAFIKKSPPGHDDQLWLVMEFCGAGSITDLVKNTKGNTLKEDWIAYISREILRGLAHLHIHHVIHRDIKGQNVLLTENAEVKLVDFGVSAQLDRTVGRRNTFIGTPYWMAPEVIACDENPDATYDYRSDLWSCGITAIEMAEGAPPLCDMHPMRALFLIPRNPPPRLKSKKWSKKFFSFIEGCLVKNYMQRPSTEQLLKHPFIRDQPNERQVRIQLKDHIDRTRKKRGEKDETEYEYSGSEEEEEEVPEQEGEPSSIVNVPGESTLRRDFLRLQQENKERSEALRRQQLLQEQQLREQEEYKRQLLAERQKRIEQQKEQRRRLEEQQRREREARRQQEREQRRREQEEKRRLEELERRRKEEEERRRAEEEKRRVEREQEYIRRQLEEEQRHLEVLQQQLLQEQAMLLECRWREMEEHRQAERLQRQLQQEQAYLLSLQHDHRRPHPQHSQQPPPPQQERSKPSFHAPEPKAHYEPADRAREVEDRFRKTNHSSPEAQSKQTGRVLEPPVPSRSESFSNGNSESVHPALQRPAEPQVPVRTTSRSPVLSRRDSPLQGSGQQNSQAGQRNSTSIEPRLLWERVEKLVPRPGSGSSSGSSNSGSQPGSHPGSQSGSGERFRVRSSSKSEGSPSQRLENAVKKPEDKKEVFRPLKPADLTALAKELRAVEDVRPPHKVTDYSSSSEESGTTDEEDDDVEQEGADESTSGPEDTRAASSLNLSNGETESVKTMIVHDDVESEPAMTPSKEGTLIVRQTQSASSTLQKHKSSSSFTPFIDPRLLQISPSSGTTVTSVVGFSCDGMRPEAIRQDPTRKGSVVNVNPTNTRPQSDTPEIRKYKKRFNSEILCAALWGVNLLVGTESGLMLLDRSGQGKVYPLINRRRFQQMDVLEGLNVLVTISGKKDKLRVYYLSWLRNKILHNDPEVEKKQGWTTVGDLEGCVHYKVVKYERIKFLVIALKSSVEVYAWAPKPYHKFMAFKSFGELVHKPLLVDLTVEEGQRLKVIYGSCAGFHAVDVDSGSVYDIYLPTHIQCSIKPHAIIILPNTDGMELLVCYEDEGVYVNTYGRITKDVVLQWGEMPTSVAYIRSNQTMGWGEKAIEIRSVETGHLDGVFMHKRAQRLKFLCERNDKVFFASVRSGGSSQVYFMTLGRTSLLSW

CC(C)(C)OC(=O)NCc1ccc(C(=O)Nc2ccncc2)cc1 [YA1, 4-(Pyridin-4-ylcarbamoyl)benzylcarbamic acid tert-butyl ester]
cell cycle / apoptotic sub G1 population ([1]; polyclonal GEF16 cells, 10 μM, FIG. 3C): no evidence of alterations in cell cycle or the accumulation of an apoptotic sub G1 population
cell cycle / apoptotic sub G1 population ([1]; single colony derived GEF16 cells, treated pre or post confluence): no effect on the cell cycle and no apoptotic sub G1 population is seen
final saturation density / growth of transformed cells in co-culture with non-transformed cells [2]: marked reduction in the final saturation density of the cultures; also recorded: more effective at suppressing the growth of transformed cells when these are in contact with non-transformed cells; also recorded: clearly restored when these are co-cultured with non-transformed NIH3T3 cells
effect on single colony derived GEF16 cells, added to post-confluent cultures ([3]; 10 μM, added after 10 days in culture): no discernible effect when compared to controls
saturation density of single colony derived GEF16 cells, added to low density cultures ([3]; 10 μM, added immediately): modest effect when added to low density cultures
effect on single colony derived GEF16 transformed cells grown in the absence of non-transformed cells ([3]; FIG. 5A): little or no effect
activity against HGK (HGK (MAP4K4); additional single point analysis, 10 μM): significant activity against p38, HGK and Aurora A
inhibition at 10 µM (HGK (MAP4K4); read-out: inhibitory activity against HGK (MAP4K4)): 63%
ROCK inhibitory activity (ROCK): ~40%
growth rates of sub-confluent GEF16 polyclonal cells versus DMSO control [4]: no detectable difference in growth rates
